Results reported in ChEMBL document CHEMBL4359841, “Late-Stage Functionalization of Platensimycin Leading to Multiple Analogues with Improved Antibacterial Activity in Vitro and in Vivo” (2019).
≈ marks a conversion by molar mass, not a printed value. Calls of active or inactive are those of the source. Unless noted, the rule behind the calls is not given here.

Experiments:
[1] = tested on: Staphylococcus aureus; assay: Inhibition of FabB/FabF in methicillin-resistant Staphylococcus aureus 3046 clinical isolate assessed as antibacterial activity after 16 hrs by agar dilution method
[2] = tested on: Staphylococcus aureus; assay: Inhibition of FabB/FabF in Staphylococcus aureus ATCC 29213 assessed as antibacterial activity after 16 hrs by agar dilution method
[3] = tested on: Staphylococcus aureus; assay: Inhibition of FabB/FabF in methicillin-resistant Staphylococcus aureus 3158 clinical isolate assessed as antibacterial activity after 16 hrs by agar dilution method
[4] = tested on: Staphylococcus aureus; assay: Inhibition of FabB/FabF in methicillin-resistant Staphylococcus aureus assessed as antibacterial activity after 16 hrs by agar dilution method
[5] = tested on: Staphylococcus aureus; assay: Inhibition of FabB/FabF in methicillin-resistant Staphylococcus aureus 3095 clinical isolate assessed as antibacterial activity after 16 hrs by agar dilution method
[6] = tested on: Staphylococcus aureus; assay: Inhibition of FabB/FabF in methicillin-resistant Staphylococcus aureus 3104 clinical isolate assessed as antibacterial activity after 16 hrs by agar dilution method
[7] = tested on: Staphylococcus aureus; assay: Inhibition of FabB/FabF in methicillin-resistant Staphylococcus aureus 3150 clinical isolate assessed as antibacterial activity after 16 hrs by agar dilution method
[8] = tested on: Staphylococcus aureus; assay: Inhibition of FabB/FabF in methicillin-resistant Staphylococcus aureus 3065 clinical isolate assessed as antibacterial activity after 16 hrs by agar dilution method
[9] = tested on: Staphylococcus aureus; assay: Antibacterial activity against methicillin-resistant Staphylococcus aureus infected in C57BL/6J mouse model of peritonitis assessed as mouse survival at 10 mg/kg, ip dosed at 1 hr and 5 hrs post infection and measured for 7 days relative to control; format: functional
[10] = tested on: Staphylococcus aureus; assay: Inhibition of FabB/FabF in methicillin-resistant Staphylococcus aureus 2984 clinical isolate assessed as antibacterial activity after 16 hrs by agar dilution method
[11] = tested on: Staphylococcus aureus; assay: Inhibition of FabB/FabF in methicillin-resistant Staphylococcus aureus 3182 clinical isolate assessed as antibacterial activity after 16 hrs by agar dilution method
[12] = tested on: Staphylococcus aureus; assay: Inhibition of FabB/FabF in methicillin-resistant Staphylococcus aureus 3188 clinical isolate assessed as antibacterial activity after 16 hrs by agar dilution method
[13] = tested on: Staphylococcus aureus; assay: Inhibition of FabB/FabF in methicillin-sensitive Staphylococcus aureus assessed as antibacterial activity after 16 hrs by agar dilution method
[14] = tested on: Staphylococcus aureus; assay: Inhibition of FabB/FabF in methicillin-resistant Staphylococcus aureus assessed as antibacterial activity at 5 ug/disk after 18 hrs by agar disk diffusion method
[15] = tested on: Staphylococcus aureus; assay: Inhibition of FabB/FabF in methicillin-resistant Staphylococcus aureus 3093 clinical isolate assessed as antibacterial activity after 16 hrs by agar dilution method
[16] = tested on: Staphylococcus aureus; assay: Inhibition of FabB/FabF in methicillin-resistant Staphylococcus aureus 3094 clinical isolate assessed as antibacterial activity after 16 hrs by agar dilution method
[17] = tested on: Staphylococcus aureus; assay: Inhibition of FabB/FabF in methicillin-resistant Staphylococcus aureus 3116 clinical isolate assessed as antibacterial activity after 16 hrs by agar dilution method
[18] = tested on: Staphylococcus aureus; assay: Inhibition of FabB/FabF in methicillin-resistant Staphylococcus aureus 3193 clinical isolate assessed as antibacterial activity after 16 hrs by agar dilution method
[19] = tested on: Staphylococcus aureus; assay: Inhibition of FabB/FabF in methicillin-resistant Staphylococcus aureus 3163 clinical isolate assessed as antibacterial activity after 16 hrs by agar dilution method
[20] = tested on: Staphylococcus aureus; assay: Inhibition of FabB/FabF in methicillin-resistant Staphylococcus aureus 2976 clinical isolate assessed as antibacterial activity after 16 hrs by agar dilution method
[21] = tested on: Staphylococcus aureus; assay: Inhibition of FabB/FabF in methicillin-resistant Staphylococcus aureus 3110 clinical isolate assessed as antibacterial activity after 16 hrs by agar dilution method
[22] = tested on: Staphylococcus aureus; assay: Inhibition of FabB/FabF in methicillin-resistant Staphylococcus aureus 3181 clinical isolate assessed as antibacterial activity after 16 hrs by agar dilution method
[23] = tested on: Staphylococcus aureus; assay: Inhibition of FabB/FabF in methicillin-resistant Staphylococcus aureus 3082 clinical isolate assessed as antibacterial activity after 16 hrs by agar dilution method
[24] = tested on: Staphylococcus aureus; assay: Inhibition of FabB/FabF in methicillin-resistant Staphylococcus aureus 2985 clinical isolate assessed as antibacterial activity after 16 hrs by agar dilution method
[25] = tested on: Staphylococcus aureus; assay: Inhibition of FabB/FabF in methicillin-resistant Staphylococcus aureus 3114 clinical isolate assessed as antibacterial activity after 16 hrs by agar dilution method
[26] = tested on: Staphylococcus aureus; assay: Inhibition of FabB/FabF in methicillin-resistant Staphylococcus aureus 2962 clinical isolate assessed as antibacterial activity after 16 hrs by agar dilution method
[27] = tested on: Staphylococcus aureus; assay: Inhibition of FabB/FabF in methicillin-resistant Staphylococcus aureus 3074 clinical isolate assessed as antibacterial activity after 16 hrs by agar dilution method
[28] = tested on: Staphylococcus aureus; assay: Inhibition of FabB/FabF in methicillin-resistant Staphylococcus aureus 2957 clinical isolate assessed as antibacterial activity after 16 hrs by agar dilution method
[29] = tested on: Staphylococcus aureus; assay: Inhibition of FabB/FabF in methicillin-sensitive Staphylococcus aureus 2956 clinical isolate assessed as antibacterial activity after 16 hrs by agar dilution method
[30] = tested on: Staphylococcus aureus; assay: Inhibition of FabB/FabF in methicillin-resistant Staphylococcus aureus 3071 clinical isolate assessed as antibacterial activity after 16 hrs by agar dilution method
[31] = tested on: Staphylococcus aureus; assay: Inhibition of FabB/FabF in methicillin-resistant Staphylococcus aureus 3156 clinical isolate assessed as antibacterial activity after 16 hrs by agar dilution method
[32] = tested on: Staphylococcus aureus; assay: Inhibition of FabB/FabF in methicillin-resistant Staphylococcus aureus 2959 clinical isolate assessed as antibacterial activity after 16 hrs by agar dilution method
[33] = tested on: Staphylococcus aureus; assay: Inhibition of FabB/FabF in methicillin-sensitive Staphylococcus aureus 2952 clinical isolate assessed as antibacterial activity after 16 hrs by agar dilution method
[34] = tested on: Staphylococcus aureus; assay: Inhibition of FabB/FabF in methicillin-resistant Staphylococcus aureus 3086 clinical isolate assessed as antibacterial activity after 16 hrs by agar dilution method
[35] = tested on: Staphylococcus aureus; assay: Inhibition of FabB/FabF in methicillin-resistant Staphylococcus aureus 3111 clinical isolate assessed as antibacterial activity after 16 hrs by agar dilution method
[36] = tested on: Staphylococcus aureus; assay: Inhibition of FabB/FabF in methicillin-resistant Staphylococcus aureus 3056 clinical isolate assessed as antibacterial activity after 16 hrs by agar dilution method
[37] = tested on: Staphylococcus aureus; assay: Inhibition of FabB/FabF in methicillin-resistant Staphylococcus aureus 3140 clinical isolate assessed as antibacterial activity after 16 hrs by agar dilution method
[38] = tested on: Staphylococcus aureus; assay: Inhibition of FabB/FabF in methicillin-resistant Staphylococcus aureus 3105 clinical isolate assessed as antibacterial activity after 16 hrs by agar dilution method
[39] = tested on: Staphylococcus aureus; assay: Inhibition of FabB/FabF in methicillin-resistant Staphylococcus aureus 3100 clinical isolate assessed as antibacterial activity after 16 hrs by agar dilution method
[40] = tested on: Staphylococcus aureus; assay: Inhibition of FabB/FabF in methicillin-resistant Staphylococcus aureus 3161 clinical isolate assessed as antibacterial activity after 16 hrs by agar dilution method
[41] = tested on: Staphylococcus aureus; assay: Inhibition of FabB/FabF in methicillin-resistant Staphylococcus aureus 2951 clinical isolate assessed as antibacterial activity after 16 hrs by agar dilution method

C[C@]12C[C@@]34C=C(SC5CCCCC5)C(=O)[C@@](C)(CCC(=O)Nc5c(O)ccc(C(=O)O)c5O)[C@@H]3[C@H](C[C@@H]1C4)O2 was tested, and the inhibition [1] was “Active”, the MIC [2] was 0.5 µg/mL (≈ 0.9 µM) and the inhibition [3] was “Active”. For the same compound, the MIC [4] was 0.25 µg/mL (≈ 0.45 µM), the inhibition [5] was “Active” and the inhibition [6] was “Active”. For the same compound, the inhibition [7] was “Active”, the inhibition [8] was “Active” and the survival at 10 mg/kg [9] was greater than 60%. The inhibition [10] was “Active”, the inhibition [11] was “Active” and the inhibition [12] was “Active”. For the same compound, the MIC [13] was 0.25 µg/mL (≈ 0.45 µM), the “antibacterial activity (disk diffusion, qualitative)” value [14] was “Active” and the inhibition [15] was “Active”. The inhibition [16] was “Active”, the inhibition [17] was “Active” and the inhibition [18] was “Active”. The inhibition [19] was “Active”, the inhibition [20] was “Active” and the inhibition [21] was “Active”. For the same compound, the inhibition [22] was “Active”, the inhibition [23] was “Active” and the inhibition [24] was “Active”. For the same compound, the inhibition [25] was “Active”, the inhibition [26] was “Active” and the inhibition [27] was “Active”. For the same compound, the inhibition [28] was “Active”, the inhibition [29] was “Active” and the inhibition [30] was “Active”. The inhibition [31] was “Active”, the inhibition [32] was “Active” and the inhibition [33] was “Active”. The inhibition [34] was “Active”, the inhibition [35] was “Active” and the inhibition [36] was “Active”. The inhibition [37] was “Active”, the inhibition [38] was “Active” and the inhibition [39] was “Active”. The inhibition [40] was “Active” and the inhibition [41] was “Active”.
In the case of C[C@]12C[C@@]34C=CC(=O)[C@@](C)(CCC(=O)Nc5c(O)ccc(C(=O)O)c5O)[C@@H]3[C@H](C[C@@H]1C4)O2, the MIC [1] is reported as 1 µg/mL (≈ 2.27 µM), the MIC [2] is reported as 1 µg/mL (≈ 2.27 µM) and the MIC [3] is reported as 1 µg/mL (≈ 2.27 µM). For the same compound, the MIC [4] was 0.5 µg/mL (≈ 1.13 µM), the MIC [5] was 1 µg/mL (≈ 2.27 µM) and the MIC [6] was 1 µg/mL (≈ 2.27 µM). For the same compound, the MIC [7] was 1 µg/mL (≈ 2.27 µM), the MIC [8] was 1 µg/mL (≈ 2.27 µM) and the Survival [9] was “inactive”. The MIC [10] was 1 µg/mL (≈ 2.27 µM), the MIC [11] was 1 µg/mL (≈ 2.27 µM) and the MIC [12] was 1 µg/mL (≈ 2.27 µM). For the same compound, the MIC [13] was 0.5 µg/mL (≈ 1.13 µM), the “antibacterial activity (disk diffusion, qualitative)” value [14] was “Active” and the MIC [15] was 1 µg/mL (≈ 2.27 µM). It also gave an MIC [16] of 1 µg/mL (≈ 2.27 µM), an MIC [17] of 1 µg/mL (≈ 2.27 µM) and an MIC [18] of 1 µg/mL (≈ 2.27 µM). It also gave an MIC [19] of 1 µg/mL (≈ 2.27 µM), an MIC [20] of 1 µg/mL (≈ 2.27 µM) and an MIC [21] of 1 µg/mL (≈ 2.27 µM). It also gave an MIC [22] of 1 µg/mL (≈ 2.27 µM), an MIC [23] of 1 µg/mL (≈ 2.27 µM) and an MIC [24] of 1 µg/mL (≈ 2.27 µM). For the same compound, the MIC [25] was 1 µg/mL (≈ 2.27 µM), the MIC [26] was 1 µg/mL (≈ 2.27 µM) and the MIC [27] was 1 µg/mL (≈ 2.27 µM). It also gave an MIC [28] of 1 µg/mL (≈ 2.27 µM), an MIC [29] of 1 µg/mL (≈ 2.27 µM) and an MIC [30] of 1 µg/mL (≈ 2.27 µM). The MIC [31] was 1 µg/mL (≈ 2.27 µM), the MIC [32] was 1 µg/mL (≈ 2.27 µM) and the MIC [33] was 1 µg/mL (≈ 2.27 µM). For the same compound, the MIC [34] was 1 µg/mL (≈ 2.27 µM), the MIC [35] was 1 µg/mL (≈ 2.27 µM) and the MIC [36] was 1 µg/mL (≈ 2.27 µM). It also gave an MIC [37] of 1 µg/mL (≈ 2.27 µM), an MIC [38] of 1 µg/mL (≈ 2.27 µM) and an MIC [39] of 1 µg/mL (≈ 2.27 µM). The MIC [40] was 1 µg/mL (≈ 2.27 µM) and the MIC [41] was 1 µg/mL (≈ 2.27 µM).
